This note sets out measurements from US12509457B2, “Bicyclic nitrogen containing heterocycles as inhibitors of salt-induced kinase SIK2” (priority 2019, dated 2025).

pKi: −log10 of the molar value. Like-named read-outs stand apart in the source and are kept apart here.

Common to all, as to assay type: biochemical
Test [1] deals with Abl (Homo sapiens, UniProt P00519). In words: Abl kinase assay, IMAP fluorescence polarization. The following applies: 50 or 100 μM ATP; average; read-out: Abl-AVERAGE Ki. In general terms: Polarisation of emitted light reports the rotation of a fluorescent probe.
Test [2] concerns the target Src (Homo sapiens, UniProt P12931). Put plainly: Src kinase assay, IMAP fluorescence polarization. The following applies: 50 or 100 μM ATP; average; read-out: Src-AVERAGE Ki.
The target in test [3] is EPHA2 (Homo sapiens, UniProt P29317). Put plainly: EPHA2 kinase assay, IMAP fluorescence polarization.
In test [4] the target is SIK2 (Homo sapiens, UniProt Q9H0K1). In words: SIK2 kinase assay, IMAP fluorescence polarization. The following applies: 50 or 100 μM ATP; average; read-out: SIK2-AVERAGE Ki.
Test [5] concerns the target SIK3 (Homo sapiens, UniProt Q9Y2K2). In words: SIK3 kinase assay, IMAP fluorescence polarization. The following applies: 50 or 100 μM ATP; average; read-out: SIK3-AVERAGE Ki.
In test [6] the target is SIK1 (Homo sapiens, UniProt P57059). In words: SIK1 kinase assay, IMAP fluorescence polarization. The following applies: 50 or 100 μM ATP; average; read-out: SIK1-AVERAGE Ki.
Chain of SIK1 (P57059 whole entry): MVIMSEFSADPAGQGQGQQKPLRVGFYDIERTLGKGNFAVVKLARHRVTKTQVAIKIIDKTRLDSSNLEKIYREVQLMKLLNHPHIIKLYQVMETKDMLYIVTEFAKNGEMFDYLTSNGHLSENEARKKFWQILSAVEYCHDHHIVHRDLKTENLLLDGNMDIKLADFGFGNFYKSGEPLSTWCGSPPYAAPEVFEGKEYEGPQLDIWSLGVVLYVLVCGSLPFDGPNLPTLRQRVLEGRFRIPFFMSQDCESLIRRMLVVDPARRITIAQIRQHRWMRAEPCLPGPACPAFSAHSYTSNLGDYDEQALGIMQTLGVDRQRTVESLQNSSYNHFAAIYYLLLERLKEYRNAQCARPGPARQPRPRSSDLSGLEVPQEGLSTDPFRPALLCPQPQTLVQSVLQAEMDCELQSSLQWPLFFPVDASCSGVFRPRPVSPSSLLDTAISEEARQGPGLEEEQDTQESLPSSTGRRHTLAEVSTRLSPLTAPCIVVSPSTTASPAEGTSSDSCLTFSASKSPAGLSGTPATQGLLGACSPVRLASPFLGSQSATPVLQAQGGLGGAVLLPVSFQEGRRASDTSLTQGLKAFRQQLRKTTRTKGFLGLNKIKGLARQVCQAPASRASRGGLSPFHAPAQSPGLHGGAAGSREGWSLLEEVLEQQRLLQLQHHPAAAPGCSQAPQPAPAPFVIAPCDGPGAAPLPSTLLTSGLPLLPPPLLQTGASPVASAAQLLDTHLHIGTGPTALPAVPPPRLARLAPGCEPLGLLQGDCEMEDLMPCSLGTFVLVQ

Chain of SIK3 (Q9Y2K2 whole entry): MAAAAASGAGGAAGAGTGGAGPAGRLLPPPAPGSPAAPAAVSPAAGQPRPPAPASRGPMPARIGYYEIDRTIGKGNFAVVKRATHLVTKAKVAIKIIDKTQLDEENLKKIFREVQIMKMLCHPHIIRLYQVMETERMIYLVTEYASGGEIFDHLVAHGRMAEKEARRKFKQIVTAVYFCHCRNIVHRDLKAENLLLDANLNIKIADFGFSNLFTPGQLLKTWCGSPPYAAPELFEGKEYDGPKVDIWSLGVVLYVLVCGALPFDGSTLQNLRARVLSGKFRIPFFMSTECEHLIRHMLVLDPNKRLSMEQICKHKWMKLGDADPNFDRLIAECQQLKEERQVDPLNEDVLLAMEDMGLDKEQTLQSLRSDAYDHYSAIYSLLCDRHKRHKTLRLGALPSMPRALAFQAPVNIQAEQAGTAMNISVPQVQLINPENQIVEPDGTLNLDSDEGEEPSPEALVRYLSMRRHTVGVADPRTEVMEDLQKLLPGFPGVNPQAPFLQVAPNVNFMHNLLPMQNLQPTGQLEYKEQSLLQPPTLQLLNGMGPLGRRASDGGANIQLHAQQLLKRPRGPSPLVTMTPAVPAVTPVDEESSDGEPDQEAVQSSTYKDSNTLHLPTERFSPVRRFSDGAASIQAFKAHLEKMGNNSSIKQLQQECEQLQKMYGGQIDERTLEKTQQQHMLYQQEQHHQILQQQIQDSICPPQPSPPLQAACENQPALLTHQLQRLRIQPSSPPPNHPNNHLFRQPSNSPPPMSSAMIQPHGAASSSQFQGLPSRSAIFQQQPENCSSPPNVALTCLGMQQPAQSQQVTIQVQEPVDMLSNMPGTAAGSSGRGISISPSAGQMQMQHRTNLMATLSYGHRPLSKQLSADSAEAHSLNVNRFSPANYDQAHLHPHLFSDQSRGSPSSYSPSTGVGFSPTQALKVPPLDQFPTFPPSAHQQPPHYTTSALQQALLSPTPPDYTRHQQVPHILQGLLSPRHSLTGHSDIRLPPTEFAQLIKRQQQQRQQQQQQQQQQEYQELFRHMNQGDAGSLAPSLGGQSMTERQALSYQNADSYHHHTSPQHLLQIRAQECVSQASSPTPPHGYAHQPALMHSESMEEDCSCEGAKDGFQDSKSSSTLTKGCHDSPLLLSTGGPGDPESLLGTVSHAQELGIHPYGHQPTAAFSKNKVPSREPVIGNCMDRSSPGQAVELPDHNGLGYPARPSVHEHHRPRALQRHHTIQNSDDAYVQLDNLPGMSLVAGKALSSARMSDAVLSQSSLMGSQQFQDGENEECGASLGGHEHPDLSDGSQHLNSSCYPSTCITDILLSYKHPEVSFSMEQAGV
Chain of EPHA2 (P29317 24-976): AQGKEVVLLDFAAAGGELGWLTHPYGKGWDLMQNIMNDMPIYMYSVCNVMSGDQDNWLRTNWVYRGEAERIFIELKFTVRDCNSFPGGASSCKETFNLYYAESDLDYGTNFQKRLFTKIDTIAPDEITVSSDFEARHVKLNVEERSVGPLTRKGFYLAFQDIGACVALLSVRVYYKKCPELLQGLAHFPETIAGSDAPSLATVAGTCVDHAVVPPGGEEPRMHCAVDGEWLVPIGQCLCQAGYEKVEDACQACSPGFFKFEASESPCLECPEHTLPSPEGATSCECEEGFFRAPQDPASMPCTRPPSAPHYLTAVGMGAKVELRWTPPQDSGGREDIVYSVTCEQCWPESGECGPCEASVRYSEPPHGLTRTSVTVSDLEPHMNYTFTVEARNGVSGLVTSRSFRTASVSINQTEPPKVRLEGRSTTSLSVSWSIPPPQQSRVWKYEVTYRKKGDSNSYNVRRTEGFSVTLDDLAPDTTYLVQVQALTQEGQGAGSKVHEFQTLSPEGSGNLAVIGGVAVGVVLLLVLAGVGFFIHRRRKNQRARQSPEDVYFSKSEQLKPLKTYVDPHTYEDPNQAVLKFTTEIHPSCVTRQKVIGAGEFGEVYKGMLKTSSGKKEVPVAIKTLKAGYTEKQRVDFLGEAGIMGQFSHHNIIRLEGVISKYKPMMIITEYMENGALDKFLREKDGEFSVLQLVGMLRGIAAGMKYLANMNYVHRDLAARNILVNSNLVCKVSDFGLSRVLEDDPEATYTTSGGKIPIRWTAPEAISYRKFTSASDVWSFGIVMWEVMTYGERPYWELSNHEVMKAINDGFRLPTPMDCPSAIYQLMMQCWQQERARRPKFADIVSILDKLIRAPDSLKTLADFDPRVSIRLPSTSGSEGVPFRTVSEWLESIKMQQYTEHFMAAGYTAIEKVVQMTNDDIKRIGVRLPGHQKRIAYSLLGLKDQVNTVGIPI
Chain of Abl (P00519 whole entry): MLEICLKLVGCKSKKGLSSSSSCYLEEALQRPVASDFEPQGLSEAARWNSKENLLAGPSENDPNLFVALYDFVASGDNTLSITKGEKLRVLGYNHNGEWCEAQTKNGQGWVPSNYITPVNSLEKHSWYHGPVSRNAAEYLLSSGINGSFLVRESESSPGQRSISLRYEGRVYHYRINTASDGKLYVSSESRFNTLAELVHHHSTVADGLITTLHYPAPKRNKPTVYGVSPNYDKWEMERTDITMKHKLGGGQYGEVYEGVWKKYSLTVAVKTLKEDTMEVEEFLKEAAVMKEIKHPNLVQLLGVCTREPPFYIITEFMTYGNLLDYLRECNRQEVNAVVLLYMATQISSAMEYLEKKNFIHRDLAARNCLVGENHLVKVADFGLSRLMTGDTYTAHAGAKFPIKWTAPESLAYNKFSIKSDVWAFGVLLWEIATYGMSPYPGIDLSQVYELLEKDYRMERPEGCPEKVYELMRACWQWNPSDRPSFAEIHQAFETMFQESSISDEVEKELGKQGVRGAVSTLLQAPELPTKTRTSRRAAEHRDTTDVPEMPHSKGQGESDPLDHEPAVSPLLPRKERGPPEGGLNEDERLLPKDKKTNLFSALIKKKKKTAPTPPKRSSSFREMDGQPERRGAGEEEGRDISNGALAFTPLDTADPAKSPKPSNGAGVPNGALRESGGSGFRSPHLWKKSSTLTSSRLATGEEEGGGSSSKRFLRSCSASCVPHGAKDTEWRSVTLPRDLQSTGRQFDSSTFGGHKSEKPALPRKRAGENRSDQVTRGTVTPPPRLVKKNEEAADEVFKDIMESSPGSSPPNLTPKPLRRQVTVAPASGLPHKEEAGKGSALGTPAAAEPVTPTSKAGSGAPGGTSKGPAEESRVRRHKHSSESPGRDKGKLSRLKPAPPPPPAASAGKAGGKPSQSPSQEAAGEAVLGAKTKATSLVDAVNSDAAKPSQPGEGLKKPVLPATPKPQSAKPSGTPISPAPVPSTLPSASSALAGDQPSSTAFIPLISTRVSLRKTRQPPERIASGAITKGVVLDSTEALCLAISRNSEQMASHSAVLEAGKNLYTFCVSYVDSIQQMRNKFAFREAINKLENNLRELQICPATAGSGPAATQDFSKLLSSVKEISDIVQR
Chain of SIK2 (Q9H0K1 whole entry): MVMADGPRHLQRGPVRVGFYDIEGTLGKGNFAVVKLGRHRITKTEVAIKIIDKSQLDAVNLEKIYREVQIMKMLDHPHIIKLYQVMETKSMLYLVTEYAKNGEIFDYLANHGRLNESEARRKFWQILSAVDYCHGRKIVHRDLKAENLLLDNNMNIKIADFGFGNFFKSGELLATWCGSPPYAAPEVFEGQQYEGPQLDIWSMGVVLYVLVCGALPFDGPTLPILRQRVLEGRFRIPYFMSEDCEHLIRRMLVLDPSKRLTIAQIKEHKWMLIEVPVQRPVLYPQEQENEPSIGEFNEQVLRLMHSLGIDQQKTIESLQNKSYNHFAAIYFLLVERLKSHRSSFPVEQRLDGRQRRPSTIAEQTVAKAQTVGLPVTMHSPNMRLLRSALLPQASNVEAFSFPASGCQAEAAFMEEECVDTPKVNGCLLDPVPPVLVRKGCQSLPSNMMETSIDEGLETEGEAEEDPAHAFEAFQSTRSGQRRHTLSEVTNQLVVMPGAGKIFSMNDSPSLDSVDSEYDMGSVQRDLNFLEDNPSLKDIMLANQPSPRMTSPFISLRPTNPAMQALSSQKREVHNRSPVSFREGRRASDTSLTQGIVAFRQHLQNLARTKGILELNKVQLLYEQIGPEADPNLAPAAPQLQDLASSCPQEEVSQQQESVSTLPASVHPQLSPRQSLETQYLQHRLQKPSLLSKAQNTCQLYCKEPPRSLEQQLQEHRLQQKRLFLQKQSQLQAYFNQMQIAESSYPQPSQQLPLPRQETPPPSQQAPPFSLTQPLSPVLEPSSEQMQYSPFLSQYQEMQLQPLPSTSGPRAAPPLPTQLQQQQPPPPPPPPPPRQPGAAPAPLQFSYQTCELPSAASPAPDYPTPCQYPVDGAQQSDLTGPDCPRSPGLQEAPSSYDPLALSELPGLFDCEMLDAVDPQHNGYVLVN

For the compound `Cc1cccc(F)c1N1Cc2cnc(N)nc2N(CC2CCNCC2)C1=O` [Example 12, 7-amino-3-(2-fluoro-6-methyl-phenyl)-1-(4-piperidylmethyl)-4H-pyrimido[4,5-d]pyrimidin-2-one], the pKi (usually the Ki on a negative log10 scale, so that one unit is a factor of ten) in test [1] was 8.51; in test [2] it was 7.41; in test [3] (50 or 100 μM ATP, average), 7.55; in test [4], 9.83; in test [5] it was 9.14; in test [6], 9.09.
Take `Cc1cccc(F)c1N1Cc2cnc(N)cc2N([C@H]2CC[C@@H](N(C)C)CC2)C1=O` [Example 46, cis-7-Amino-1-[4-(dimethylamino)cyclohexyl]-3-(2-fluoro-6-methyl-phenyl)-4H-pyrido[4,3-d]pyrimidin-2-one]: the pKi in test [1] is 7.37; in test [2] it was 6.79; in test [3] (50 or 100 μM ATP, average) it was 7.07; in test [4], 9.63; in test [5], 8.93; in test [6], 9.42.
`Cc1cccc(F)c1N1Cc2cnc(N(C)C)cc2N([C@H]2CC[C@@H](N(C)C)CC2)C1=O` [Example 41, cis-7-(dimethylamino)-1-[4-(dimethylamino)cyclohexyl]-3-(2-fluoro-6-methyl-phenyl)-4H-pyrido[4,3-d]pyrimidin-2-one]: the pKi is less than 5.00 in test [1]; less than 5.00 in test [2]; less than 5.00 in test [3] (50 or 100 μM ATP, average); 6.99 in test [4]; 6.25 in test [5]; 6.32 in test [6].
As for `Cc1cccc(F)c1N1Cc2cnc(N)cc2N([C@H]2CCC[C@@H](N(C)C)C2)C1=O` (relative stereo) [Example 43, 7-amino-1-[cis-3-(dimethylamino)cyclohexyl]-3-(2-fluoro-6-methyl-phenyl)-4H-pyrido[4,3-d]pyrimidin-2-one], the pKi in test [1] is 7.60; in test [2], 7.15; in test [3] (50 or 100 μM ATP, average), 7.41; in test [4], 8.80; in test [5] it was 7.87; in test [6] it was 8.71.
For the compound `Cc1cccc(F)c1N1Cc2cnc(N)nc2N([C@H]2CC[C@H](N(C)C)CC2)C1=O` [Example 45, trans-7-Amino-1-[4-(dimethylamino)cyclohexyl]-3-(2-fluoro-6-methyl-phenyl)-4H-pyrimido[4,5-d]pyrimidin-2-one], the pKi in test [1] was 7.80; in test [2], 7.26; in test [3] (50 or 100 μM ATP, average), 7.47; in test [4] it was 9.61; in test [5], 9.00; in test [6], 9.13.
Consider `Cc1cccc(F)c1N1Cc2cnc(N)nc2N(C2CNC2)C1=O` [Example 13, 7-Amino-1-(azetidin-3-yl)-3-(2-fluoro-6-methyl-phenyl)-4H-pyrimido[4,5-d]pyrimidin-2-one], for which the pKi in test [1] is 7.44; in test [2], 6.40; in test [3] (50 or 100 μM ATP, average), 6.43; in test [4], 8.75; in test [5], 7.96; in test [6], 8.01.
As for `Cc1cccc(F)c1N1Cc2cnc(N)nc2N([C@H]2CCCCN(C)C2)C1=O` [Example 36, 7-amino-3-(2-fluoro-6-methyl-phenyl)-1-[(3S)-1-methylazepan-3-yl]-4H-pyrimido[4,5-d]pyrimidin-2-one], the pKi is 7.21 in test [1]; 6.86 in test [2]; 6.91 in test [3] (50 or 100 μM ATP, average); 9.17 in test [4]; 8.06 in test [5]; 8.73 in test [6].
`Cc1cccc(F)c1N1Cc2cnc(N)cc2N([C@@H]2CCCN(C)CC2)C1=O` [Example 84, 7-amino-3-(2-fluoro-6-methyl-phenyl)-1-[(4R)-1-methylazepan-4-yl]-4H-pyrido[4,3-d]pyrimidin-2-one]: the pKi in test [1] is 7.83; in test [2], 6.90; in test [3] (50 or 100 μM ATP, average), 7.49; in test [4], 9.85; in test [5] it was 9.52; in test [6], 9.33.
For the compound `Cc1cccc(F)c1N1Cc2cnc(N)cc2N([C@@H]2CCCN(C)C2)C1=O` [Example 81, 7-amino-3-(2-fluoro-6-methyl-phenyl)-1-[(3R)-1-methyl-3-piperidyl]-4H-pyrido[4,3-d]pyrimidin-2-one], the pKi in test [1] is 7.17; in test [2] it was 6.60; in test [3] (50 or 100 μM ATP, average) it was 7.35; in test [4], 9.28; in test [5], 8.30; in test [6], 9.08.
Turning to `Cc1cccc(F)c1N1Cc2cnc(N)cc2N([C@H]2CC[C@H](N)CC2)C1=O` [Example 58, trans-7-Amino-1-(4-aminocyclohexyl)-3-(2-fluoro-6-methyl-phenyl)-4H-pyrido[4,3-d]pyrimidin-2-one], the pKi in test [1] was 7.54; in test [2], 7.72; in test [3] (50 or 100 μM ATP, average), 7.33; in test [4], 9.92; in test [5], 9.55; in test [6] it was 9.35.
For the compound `Cc1cccc(F)c1N1Cc2cnc(N)cc2N([C@@H]2CCCNCC2)C1=O` [Example 51, 7-amino-3-(2-fluoro-6-methyl-phenyl)-1-[(4R)-azepan-4-yl]-4H-pyrido[4,3-d]pyrimidin-2-one], the pKi is 7.98 in test [1]; 7.04 in test [2]; 7.51 in test [3] (50 or 100 μM ATP, average); 9.74 in test [4]; 9.09 in test [5]; 9.39 in test [6].
With `Cc1cccc(F)c1N1Cc2cnc(N)nc2N([C@H]2CCCNC2)C1=O` [Example 71, 7-amino-3-(2-fluoro-6-methyl-phenyl)-1-[(3S)-3-piperidyl]-4H-pyrimido[4,5-d]pyrimidin-2-one], the negative logarithm of the Ki (pKi) is 6.98 in test [1]; 6.41 in test [2]; 7.05 in test [3] (50 or 100 μM ATP, average); 9.43 in test [4]; 8.20 in test [5]; 8.90 in test [6].
On to `Cc1cccc(F)c1N1Cc2cnc(N)nc2N([C@H]2CCCCNC2)C1=O` [Example 70, 7-amino-1-[(3S)-azepan-3-yl]-3-(2-fluoro-6-methyl-phenyl)-4H-pyrimido[4,5-d]pyrimidin-2-one], for which the pKi in test [1] was 7.07; in test [2], 6.94; in test [3] (50 or 100 μM ATP, average), 7.13; in test [4], 9.56; in test [5], 8.23; in test [6], 9.04.
`Cc1cccc(F)c1N1Cc2cnc(N)cc2N([C@H]2CCN(C)C2)C1=O` [Example 79, 7-amino-3-(2-fluoro-6-methyl-phenyl)-1-[(3S)-1-methylpyrrolidin-3-yl]-4H-pyrido[4,3-d]pyrimidin-2-one]: the pKi in test [1] is 6.31; in test [2] it was less than 5.00; in test [3], 6.79; in test [4], 8.19; in test [5], 7.07; in test [6], 8.01.
Turning to `Cc1cccc(Cl)c1N1Cc2cnc(N)nc2N(C2CN(C)C2)C1=O` [Example 23, 7-amino-3-(2-chloro-6-methyl-phenyl)-1-(1-methylazetidin-3-yl)-4H-pyrimido[4,5-d]pyrimidin-2-one], the pKi in test [1] was less than 5.00; in test [2], 6.26; in test [3] (50 or 100 μM ATP, average) it was 6.79; in test [4], 7.85; in test [5] it was 7.26; in test [6], 7.54.
Take `Cc1cccc(Cl)c1N1Cc2cnc(N)nc2N(C2CNC2)C1=O` [Example 14, 7-amino-1-(azetidin-3-yl)-3-(2-chloro-6-methyl-phenyl)-4H-pyrimido[4,5-d]pyrimidin-2-one]: the pKi in test [1] was 7.37; in test [2], 7.02; in test [3] (50 or 100 μM ATP, average), 6.75; in test [4], 8.78; in test [5], 8.02; in test [6], 8.24.
For the compound `Cc1cccc(F)c1N1Cc2cnc(N)cc2N([C@H]2CCCNCC2)C1=O` [Example 54, 7-amino-1-[(4S)-azepan-4-yl]-3-(2-fluoro-6-methyl-phenyl)-4H-pyrido[4,3-d]pyrimidin-2-one], the pKi was 7.19 in test [1]; 6.37 in test [2]; 6.67 in test [3] (50 or 100 μM ATP, average); 9.14 in test [4]; 8.38 in test [5]; 8.68 in test [6].
Regarding `Cc1cccc(F)c1N1Cc2cnc(N)nc2N([C@H]2CC[C@H](N)CC2)C1=O` [Example 77, 7-amino-1-(4-aminocyclohexyl)-3-(2-fluoro-6-methyl-phenyl)-4H-pyrimido[4,5-d]pyrimidin-2-one], the pKi in test [1] was 7.56; in test [2], 7.19; in test [3] (50 or 100 μM ATP, average), 7.76; in test [4] it was 9.65; in test [5], 9.13; in test [6], 9.16.
`Cc1cccc(F)c1N1Cc2cnc(N)cc2N([C@H]2CC[C@@H](N)CC2)C1=O` [Example 62, cis-7-Amino-1-(4-aminocyclohexyl)-3-(2-fluoro-6-methyl-phenyl)-4H-pyrido[4,3-d]pyrimidin-2-one]: the pKi in test [1] is 7.37; in test [2], 7.51; in test [3] (50 or 100 μM ATP, average), 7.55; in test [4] it was 9.83; in test [5] it was 9.03; in test [6], 9.13.
In the case of `Cc1cccc(F)c1N1Cc2cnc(N)nc2N([C@H]2CCNC2)C1=O` [Example 65, 7-Amino-3-(2-fluoro-6-methyl-phenyl)-1-[(3S)-pyrrolidin-3-yl]-4H-pyrimido[4,5-d]pyrimidin-2-one], the pKi in test [1] was less than 6.00; in test [2], less than 6.00; in test [3] (50 or 100 μM ATP, average) it was 6.83; in test [4], 8.95; in test [5], 7.68; in test [6], 8.55.
